Test results reported in PubChem BioAssay AID2060906 (Molecular Pharmacology Branch, DTP, NCI, 2025).

System: 485176-168-R4-J1-PDC complex spheroid growth
Test: Anticancer human tumor 485176-168-R4-J1-PDC patient-derived pancreatic adenocarcinoma cell line growth inhibition [RAS]
Conditions: for viability, T/C: stronger effect = lower value
Outline: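 Tumour cells grown as complex spheroids with HUVEC endothelial cells and mesenchymal stem cells, treated with RAS pathway inhibitor combinations. Each agent spans half-log steps from near clinical Cmax, or 10 microM where Cmax is unknown.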

[1] = curve of first compound, second compound 0.000949 µM
[2] = curve of first compound, second compound 0.003 µM
[3] = curve of first compound, second compound 0.00949 µM
[4] = curve of first compound, second compound 0.03 µM
[5] = curve of first compound, second compound 0.0949 µM
[6] = curve of first compound, second compound 0.3 µM
[7] = second compound 0.000949 µM, first compound 0.0316 µM
[8] = second compound 0.000949 µM, first compound 0.1 µM
[9] = second compound 0.000949 µM, first compound 0.316 µM
[10] = second compound 0.000949 µM, first compound 1 µM
[11] = second compound 0.000949 µM, first compound 3.16 µM
[12] = second compound 0.000949 µM, first compound 10 µM
[13] = second compound 0.003 µM, first compound 0.0316 µM
[14] = second compound 0.003 µM, first compound 0.1 µM
[15] = second compound 0.003 µM, first compound 0.316 µM
[16] = second compound 0.003 µM, first compound 1 µM
[17] = second compound 0.003 µM, first compound 3.16 µM
[18] = second compound 0.003 µM, first compound 10 µM
[19] = second compound 0.00949 µM, first compound 0.0316 µM
[20] = second compound 0.00949 µM, first compound 0.1 µM
[21] = second compound 0.00949 µM, first compound 0.316 µM
[22] = second compound 0.00949 µM, first compound 1 µM
[23] = second compound 0.00949 µM, first compound 3.16 µM
[24] = second compound 0.00949 µM, first compound 10 µM
[25] = second compound 0.03 µM, first compound 0.0316 µM
[26] = second compound 0.03 µM, first compound 0.1 µM
[27] = second compound 0.03 µM, first compound 0.316 µM
[28] = second compound 0.03 µM, first compound 1 µM
[29] = second compound 0.03 µM, first compound 3.16 µM
[30] = second compound 0.03 µM, first compound 10 µM
[31] = second compound 0.0949 µM, first compound 0.0316 µM
[32] = second compound 0.0949 µM, first compound 0.1 µM
[33] = second compound 0.0949 µM, first compound 0.316 µM
[34] = second compound 0.0949 µM, first compound 1 µM
[35] = second compound 0.0949 µM, first compound 3.16 µM
[36] = second compound 0.0949 µM, first compound 10 µM
[37] = second compound 0.3 µM, first compound 0.0316 µM
[38] = second compound 0.3 µM, first compound 0.1 µM
[39] = second compound 0.3 µM, first compound 0.316 µM
[40] = second compound 0.3 µM, first compound 1 µM
[41] = second compound 0.3 µM, first compound 3.16 µM
[42] = second compound 0.3 µM, first compound 10 µM
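Also: spheroids exposed to compounds for seven days before readout.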
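For viability, T/C in this document: luminescence viability expressed relative to DMSO vehicle wells set as 100%.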

Structure (SMILES): CC(C)NCC(C(=O)N1CCN(c2ncnc3c2C(C)CC3O)CC1)c1ccc(Cl)cc1 (stereo not given) + CCn1c(-c2cc(N3CCN(C)CC3)cnc2C(C)OC)c2c3cc(ccc31)-c1csc(n1)CC(NC(=O)C1CC1C)C(=O)N1CCCC(N1)C(=O)OCC(C)(C)C2
- IC50 [1]: 2330 nM
- IC50 [2]: 3710 nM
- IC50 [3]: 1650 nM
- IC50 [4]: 847 nM
- IC50 [5]: 721 nM
- IC50 [6]: 790 nM
- viability, T/C [7]: 116%
- viability, T/C [8]: 99.5%
- viability, T/C [9]: 78.7%
- viability, T/C [10]: 64.8%
- viability, T/C [11]: 43.6%
- viability, T/C [12]: 33%
- viability, T/C [13]: 82.2%
- viability, T/C [14]: 101%
- viability, T/C [15]: 74.3%
- viability, T/C [16]: 65%
- viability, T/C [17]: 55.1%
- viability, T/C [18]: 38.8%
- viability, T/C [19]: 97.9%
- viability, T/C [20]: 79.7%
- viability, T/C [21]: 82.4%
- viability, T/C [22]: 56.8%
- viability, T/C [23]: 38.7%
- viability, T/C [24]: 32.3%
- viability, T/C [25]: 94.7%
- viability, T/C [26]: 73.8%
- viability, T/C [27]: 81.2%
- viability, T/C [28]: 44.4%
- viability, T/C [29]: 40.5%
- viability, T/C [30]: 31.7%
- viability, T/C [31]: 81.3%
- viability, T/C [32]: 67.9%
- viability, T/C [33]: 70.3%
- viability, T/C [34]: 41.3%
- viability, T/C [35]: 35.5%
- viability, T/C [36]: 26.8%
- viability, T/C [37]: 72.2%
- viability, T/C [38]: 72.1%
- viability, T/C [39]: 57.5%
- viability, T/C [40]: 46.4%
- viability, T/C [41]: 38.4%
- viability, T/C [42]: 26.8%

Structure (SMILES): CCC(CC)c1cc(NC2CCC(N)C2)n2nccc2n1 (stereo not given) + C=CC(=O)N1CCN(c2nc(OCC3CCCN3C)nc3c(F)c(-c4nc(N)cc(C)c4C(F)(F)F)c(Cl)cc23)C(C)C1
- IC50 (curve of first compound, second compound 0.00316 µM): 1540 nM
- IC50 (curve of first compound, second compound 0.01 µM): 1450 nM
- IC50 (curve of first compound, second compound 0.0316 µM): 1460 nM
- IC50 (curve of first compound, second compound 0.1 µM): 1680 nM
- IC50 (curve of first compound, second compound 0.316 µM): 1510 nM
- IC50 (curve of first compound, second compound 1 µM): 1460 nM
- viability, T/C (second compound 0.00316 µM, first compound 0.0316 µM): 103%
- viability, T/C (second compound 0.00316 µM, first compound 0.1 µM): 101%
- viability, T/C (second compound 0.00316 µM, first compound 0.316 µM): 102%
- viability, T/C (second compound 0.00316 µM, first compound 1 µM): 78.5%
- viability, T/C (second compound 0.00316 µM, first compound 3.16 µM): 3.09%
- viability, T/C (second compound 0.00316 µM, first compound 10 µM): 0.53%
- viability, T/C (second compound 0.01 µM, first compound 0.0316 µM): 111%
- viability, T/C (second compound 0.01 µM, first compound 0.1 µM): 98.3%
- viability, T/C (second compound 0.01 µM, first compound 0.316 µM): 77.1%
- viability, T/C (second compound 0.01 µM, first compound 1 µM): 72.9%
- viability, T/C (second compound 0.01 µM, first compound 3.16 µM): 3.14%
- viability, T/C (second compound 0.01 µM, first compound 10 µM): 0.53%
- viability, T/C (second compound 0.0316 µM, first compound 0.0316 µM): 101%
- viability, T/C (second compound 0.0316 µM, first compound 0.1 µM): 103%
- viability, T/C (second compound 0.0316 µM, first compound 0.316 µM): 103%
- viability, T/C (second compound 0.0316 µM, first compound 1 µM): 72.9%
- viability, T/C (second compound 0.0316 µM, first compound 3.16 µM): 2.99%
- viability, T/C (second compound 0.0316 µM, first compound 10 µM): 0.57%
- viability, T/C (second compound 0.1 µM, first compound 0.0316 µM): 97.7%
- viability, T/C (second compound 0.1 µM, first compound 0.1 µM): 104%
- viability, T/C (second compound 0.1 µM, first compound 0.316 µM): 93.3%
- viability, T/C (second compound 0.1 µM, first compound 1 µM): 88.8%
- viability, T/C (second compound 0.1 µM, first compound 3.16 µM): 3.12%
- viability, T/C (second compound 0.1 µM, first compound 10 µM): 0.5%
- viability, T/C (second compound 0.316 µM, first compound 0.0316 µM): 87.8%
- viability, T/C (second compound 0.316 µM, first compound 0.1 µM): 93.5%
- viability, T/C (second compound 0.316 µM, first compound 0.316 µM): 95.3%
- viability, T/C (second compound 0.316 µM, first compound 1 µM): 76.2%
- viability, T/C (second compound 0.316 µM, first compound 3.16 µM): 3.3%
- viability, T/C (second compound 0.316 µM, first compound 10 µM): 0.53%
- viability, T/C (second compound 1 µM, first compound 0.0316 µM): 94.8%
- viability, T/C (second compound 1 µM, first compound 0.1 µM): 110%
- viability, T/C (second compound 1 µM, first compound 0.316 µM): 89.6%
- viability, T/C (second compound 1 µM, first compound 1 µM): 73.3%
- viability, T/C (second compound 1 µM, first compound 3.16 µM): 2.65%
- viability, T/C (second compound 1 µM, first compound 10 µM): 0.64%

Structure (SMILES): CC(C)n1nc(-c2ccc3oc(N)nc3c2)c2c(N)ncnc21
- viability, T/C (compound 0.000316 µM): 104% [middle of 4 runs]
- viability, T/C (compound 0.001 µM): 77.8% [middle of 4 runs]
- viability, T/C (compound 0.00316 µM): 84.1% [middle of 4 runs]
- viability, T/C (compound 0.01 µM): 77.2% [middle of 4 runs]
- viability, T/C (compound 0.0316 µM): 49.2% [middle of 4 runs]
- viability, T/C (compound 0.1 µM): 22.3% [middle of 4 runs]
- IC50 (curve of compound): 31.2 nM [middle of 4 runs]

Structure (SMILES): CC1(O)CCCC1n1c(=O)c(C(F)F)cc2cnc(NC3CCN(S(C)(=O)=O)CC3)nc21 (stereo not given)
- viability, T/C (compound 0.0316 µM): 102% [middle of 4 runs]
- viability, T/C (compound 0.1 µM): 77.6% [middle of 4 runs]
- viability, T/C (compound 0.316 µM): 70.4% [middle of 4 runs]
- viability, T/C (compound 1 µM): 72.5% [middle of 4 runs]
- viability, T/C (compound 3.16 µM): 57.5% [middle of 4 runs]
- viability, T/C (compound 10 µM): 2.58% [middle of 4 runs]
- IC50 (curve of compound): 2.72 µM [middle of 4 runs]

Structure (SMILES): CC(=O)OC12COC1CC(O)C1(C)C(=O)C(O)C3=C(C)C(OC(=O)C(O)C(NC(=O)OC(C)(C)C)c4ccccc4)CC(O)(C(OC(=O)c4ccccc4)C21)C3(C)C (stereo not given) + CCn1c(-c2cc(N3CCN(C)CC3)cnc2C(C)OC)c2c3cc(ccc31)-c1csc(n1)CC(NC(=O)C1CC1C)C(=O)N1CCCC(N1)C(=O)OCC(C)(C)C2
- IC50 [1]: < 31.6 nM
- IC50 [2]: < 31.6 nM
- IC50 [3]: < 31.6 nM
- IC50 [4]: < 31.6 nM
- IC50 [5]: < 31.6 nM
- IC50 [6]: < 31.6 nM
- viability, T/C [7]: 16.7%
- viability, T/C [8]: 15.2%
- viability, T/C [9]: 13.1%
- viability, T/C [10]: 13.9%
- viability, T/C [11]: 15.6%
- viability, T/C [12]: 19.6%
- viability, T/C [13]: 14.1%
- viability, T/C [14]: 13.2%
- viability, T/C [15]: 10.9%
- viability, T/C [16]: 15.5%
- viability, T/C [17]: 13.1%
- viability, T/C [18]: 17.9%
- viability, T/C [19]: 17.2%
- viability, T/C [20]: 12.8%
- viability, T/C [21]: 12.7%
- viability, T/C [22]: 12.8%
- viability, T/C [23]: 13.2%
- viability, T/C [24]: 20.1%
- viability, T/C [25]: 12.3%
- viability, T/C [26]: 13.4%
- viability, T/C [27]: 13.8%
- viability, T/C [28]: 10.8%
- viability, T/C [29]: 16.5%
- viability, T/C [30]: 21%
- viability, T/C [31]: 14.2%
- viability, T/C [32]: 11.9%
- viability, T/C [33]: 11.8%
- viability, T/C [34]: 9.97%
- viability, T/C [35]: 14.9%
- viability, T/C [36]: 15.9%
- viability, T/C [37]: 15.5%
- viability, T/C [38]: 13.1%
- viability, T/C [39]: 9.69%
- viability, T/C [40]: 12.8%
- viability, T/C [41]: 15.8%
- viability, T/C [42]: 14.7%
